Consider 41 compounds from EP1724268A1, “COMPOUND HAVING TGF-BETA INHIBITORY ACTIVITY AND PHARMACEUTICAL COMPOSITION CONTAINING SAME” (KIRIN BEER KABUSHIKI KAISHA, priority 2004, dated 2005).

SMILES strings stand for the structures. Where two headings read alike, the source gives them in different places.

The test relates to TGFβ signal. The test can be described thus: TGFβ signal inhibitory activity, (SBE)4-Luc reporter in A549 cells (Test Examples 1A and 1B). It counts as cell-based, human. The conditions noted are these: Homo sapiens, A549, read-out: TGFβ inhibition rate, %; for inhibition at 1 µM: test compound 1 µM. How it is done:
Test Example 1A: TGFβ signal inhibitory activity (in vitro test) The compounds according to the present invention was evaluated for TGFβ signal inhibitory activity according to the method described in J. Boil .Chem., 273, 21145-21152 (1998). Specifically, a plasmid having four tandem binding sequences of Smad3, a TGF-beta signal transducer, to the upstream of a luciferases gene were used as a reporter plasmid ((SBE)4-Luc) to detect TGF-beta signal, This reporter gene was introduced into human pulmonary carcinoma epithelial cells (A549) (available from ATCC) to establish a stable cell line. A test compound and TGFβ-1 (2 ng/ ml) were added to the cells, and the mixture was cultured for 4 hr. In this case, the compounds according to the present invention synthesized in the Examples were used as the test compound. After the culture, the luciferase activity of the cells were measured by chemiluminescence (Steady Glo (trademark) luciferase assay system, available from Promega). Likewise, the luciferase activity was measured as a control against the culture of cells with the addition of TGFβ only and the culture of cells without the addition of both TGFβ and the test compound.
The TGFβ inhibition (%) was calculated by the following equation, based on the measurement results. TGFβ inhibition(%) = (A-B)/(A-C) × 100 [formula] wherein • A: luciferase activity with the addition of TGFβ1 and without the addition of test compound (relative luciferase unit), • B: luciferase activity with the addition of both TGFβ1 and test compound (relative luciferase unit), and • C: luciferase activity without the addition of both TGFβ1 and test compound (relative luciferase unit).
The test was carried out for each of test compound at the concentrations of 3 µM and 10 µM. For certain test compounds, the test was further carried out for test compound at the concentration of 1 µM.
For the compounds of Reference Examples, the TGFβ signal inhibitory activity was evaluated in the same manner as in Test Example 1A.

The mark [1] stands for this setting: 3 µM, compounds of Reference Examples (Test Example 1B).
Setting [2] is: 10 µM, compounds of Reference Examples (Test Example 1B).
Setting [3] is: test compound 3 µM, TGFβ-1 2 ng/ml, 4 hr, Table 1A.
Where [4] appears, read: test compound 10 µM, TGFβ-1 2 ng/ml, 4 hr, Table 1A.
Where [5] appears, read: test compound 3 µM, Reference Examples, Table 1B.
Where [6] appears, read: test compound 10 µM, Reference Examples, Table 1B.

With `COc1cc2c(Oc3cc4ccccc4nc3C(C)=O)ccnc2cc1OCCN1CCCCC1` [Compound r467], under setting [1], the inhibition at 3 µM was 100%. `COc1cc2nccc(Oc3ccc(C)nc3-c3cccc(C(F)(F)F)c3)c2cc1OC` [Compound r230]: the inhibition at 3 µM under setting [1] is 60%. For the same compound, under setting [2], the inhibition at 10 µM was 97%. Turning to `COc1cc2nccc(Oc3cc4cccnc4nc3-c3ccc(Cl)cc3)c2cc1OC` [Compound 84, 2-(4-Chloro-phenyl)-3-(6,7-dimethoxy-quinolin-4-yloxy)-[1,8]naphthyridine], under setting [3], the inhibition at 3 µM is 69%. In addition, the inhibition at 10 µM under setting [4] is 100%.

For the compound `COc1cc2c(Oc3cc4cccnc4nc3C)ccnc2cc1OCCCCO` [Compound r405], the inhibition at 3 µM under setting [1] turned out to be 92%. The inhibition at 10 µM under setting [2] turned out to be 100%. Take `COc1cc2nccc(Oc3cc4ccccc4nc3OC3CCCC3)c2cc1OC` [r280]: under setting [1], the inhibition at 3 µM came out at 45%. Further, under setting [2], the inhibition at 10 µM amounted to 88%. For the compound `COc1cc(OC)c(C(C)=O)c(Oc2ccnc3cc(OC)c(OC)cc23)c1` [r40], the inhibition at 3 µM under setting [5] worked out at 12%. Further, under setting [6], the inhibition at 10 µM was 83%.

With `Cc1cc(Oc2ccnc3ccccc23)c(-c2ccccn2)nc1C` [Compound 1, 5,6-Dimethyl-3-(quinolin-4-yloxy)-[2,2']bipyridine], under setting [3], the inhibition at 3 µM was found to be 100%. In addition, the inhibition at 10 µM under setting [4] stood at 100%. For the compound `Cc1cc(Oc2ccnc3cc(C(N)=O)ccc23)c(-c2ccccn2)nc1C` [Compound 126, 4-(5,6-Dimethyl-[2,2']bipyridinyl-3-yloxy)-quinoline-7-carboxylic acid amide], under setting [3], the inhibition at 3 µM turned out to be 93%. Also, the inhibition at 10 µM under setting [4] worked out at 100%. On to `COc1cc2nccc(Oc3ccc(C)nc3-c3cccc(O)c3)c2cc1OC` [Compound r237], for which, under setting [1], the inhibition at 3 µM amounted to 100%. Also, the inhibition at 10 µM under setting [2] came to 100%. Take `COc1cc2nccc(Oc3cc4ccccc4nc3CN(C(C)C)C(C)C)c2cc1OC` [Compound r277, [3-(6,7-Dimethoxy-quinolin-4-yloxy)-quinolin-2-ylmethyl]-diisopropyl-amine]: the inhibition at 3 µM under setting [1] came to 32%. Further, under setting [2], the inhibition at 10 µM came out at 89%.

Regarding `CCCOC(=O)c1cc2ccccc2cc1Oc1ccnc2cc(OC)c(OC)cc12` [r201], the inhibition at 3 µM under setting [1] stood at 79%. Moreover, the inhibition at 10 µM under setting [2] was found to be 100%. On to `COc1cc2nccc(Oc3cc4c5c(c3C=O)CCCN5CCC4)c2cc1OC` [Compound r28], for which, under setting [5], the inhibition at 3 µM is 0%. The inhibition at 10 µM under setting [6] is 53%. Consider `COc1cc2nccc(Oc3ccc(Br)cc3C(=O)c3ccccc3)c2cc1OC` [Compound r70], for which, under setting [5], the inhibition at 3 µM amounted to 73%. For the same compound, the inhibition at 10 µM under setting [6] amounted to 100%. With `COc1cc2c(Oc3cc4ccccc4nc3C)ccnc2cc1OCCN1CCCC(C(N)=O)C1` (centres unmarked) [Compound r360], under setting [1], the inhibition at 3 µM was 100%. Further, the inhibition at 10 µM under setting [2] stood at 100%. With `COc1cc2c(Oc3cc(C)c(C)nc3-c3nc(C)c(C)s3)ccnc2cc1OCCO` [Compound r461], the inhibition at 3 µM under setting [1] was 82%. As to `Cc1cc(Oc2ccnc3cc(O)ccc23)c(-c2ccccn2)nc1C` [Compound 140, 4-(5,6-Dimethyl-[2,2']bipyridinyl-3-yloxy)-quinolin-7-ol], under setting [3], the inhibition at 3 µM came to 99%. Under setting [4], the inhibition at 10 µM amounted to 100%.

`COc1cc2nccc(Oc3cc(C)c(C)nc3-c3ccc(C)cn3)c2cc1OC` [Compound r272]: the inhibition at 3 µM under setting [1] was 98%. For the same compound, under setting [2], the inhibition at 10 µM was found to be 100%. For `COc1cc2c(Oc3cc4ccccc4nc3C)ccnc2cc1OCCCO` [Compound r382] the same measures were 100% and 100%. As for `COc1cc2nccc(Oc3cc4c(cc3C(C)=O)CCC4)c2cc1OC` [r182], the inhibition at 3 µM under setting [1] worked out at 57%. Under setting [2], the inhibition at 10 µM was found to be 96%.

`COc1cc2nccc(Sc3ccc4ccccc4n3)c2cc1OC` [r420]: the inhibition at 3 µM under setting [1] worked out at 2%. Moreover, the inhibition at 10 µM under setting [2] is 62%. Turning to `COc1cc2nccc(Oc3cc(C)c(C)cc3/C(C)=N/Oc3ccccc3)c2cc1OC` [r199], the inhibition at 3 µM under setting [1] is 14%. Moreover, the inhibition at 10 µM under setting [2] is 59%. As for `COc1cc2c(Oc3cc4ccccc4nc3C)ccnc2cc1OC[C@@H](O)CO` [Compound r385], the inhibition at 3 µM under setting [1] was determined as 100%. Besides, the inhibition at 10 µM under setting [2] worked out at 100%. Consider `COc1cc2nccc(Oc3cc(C)c(C)nc3-c3ccccn3)c2cc1Br` [Compound 133, 3-(6-Bromo-7-methoxy-quinolin-4-yloxy)-5,6-dimethyl-[2,2']bip yridine], for which the inhibition at 3 µM under setting [3] stood at 99%. Further, the inhibition at 10 µM under setting [4] is 100%.

Consider `COC(=O)c1cc2nccc(Oc3cc4cccnc4nc3-c3ccccc3)c2cc1OC` [Compound 116, Methyl 6-methoxy-4-(2-phenyl-[1,8]naphthyridin-3-yloxy)-quinoline-7-carboxylate], for which the inhibition at 3 µM under setting [3] turned out to be 99%. Further, the inhibition at 10 µM under setting [4] was determined as 100%.

For `Cc1cc(Oc2ccnc3ccc(O)cc23)c(-c2ccccn2)nc1C` [Compound 139, 4-(5,6-Dimethyl-[2,2']bipyridinyl-3-yloxy)-quinolin-6-ol], the inhibition at 3 µM under setting [3] is 100%. The inhibition at 10 µM under setting [4] worked out at 100%. `Cc1csc2ncnc(Oc3cc4cccnc4nc3-c3ccccc3)c12` [Compound 77, 3-(5-Methyl-thieno[2,3-d]pyrimidin-4-yloxy)-2-phenyl-[1,8]naphthyridine]: under setting [3], the inhibition at 3 µM came to 93%. Further, the inhibition at 10 µM under setting [4] was found to be 99%. Regarding `COc1cc2nccc(Oc3cc4ccccc4nc3-c3ncccn3)c2cc1OC` [Compound 92, 6,7-Dimethoxy-4-(2-pyrimidin-2-yl-quinolin-3-yloxy)-quinoline], the inhibition at 1 µM (TGFβ-1 2 ng/ml, 4 hr, Table 1A) is 62%. Further, the inhibition at 3 µM under setting [3] stood at 98%. On to `CCc1ccc(Oc2ccnc3cc(OC)c(F)cc23)c(-c2ccccn2)n1` [Compound 162, 6-Ethyl-3-(6-fluoro-7-methoxy-quinolin-4-yloxy)-[2,2']bipyridine], for which the inhibition at 3 µM under setting [3] was found to be 100%. Besides, the inhibition at 10 µM under setting [4] was 100%. Turning to `COc1cc2nccc(Oc3cc(C)c(C)nc3-c3cc(C)ccn3)c2cc1OC` [Compound r273], under setting [1], the inhibition at 3 µM was 99%. For the same compound, the inhibition at 10 µM under setting [2] came out at 100%.

On to `COc1cc2nccc(Oc3cc(Cl)cnc3OC3CCCC3)c2cc1OC` [r222], for which the inhibition at 3 µM under setting [1] amounted to 44%. Besides, the inhibition at 10 µM under setting [2] came out at 100%.

Take `CCN(CC)CCCCOc1cc2nccc(Oc3ccc(C)cc3C(=O)c3ccccc3)c2cc1OC` [r143]: under setting [5], the inhibition at 3 µM amounted to 97%. The inhibition at 10 µM under setting [6] was determined as 100%.

Consider `COc1cc2c(Oc3cc4cccnc4nc3C)ccnc2cc1OCCCO` [Compound r402], for which the inhibition at 3 µM under setting [1] was 90%. Also, the inhibition at 10 µM under setting [2] came to 100%. In the case of `COc1cc2nccc(Oc3cc4ccccc4nc3C)c2cc1OC` [r276], under setting [1], the inhibition at 3 µM was 89%. The inhibition at 10 µM under setting [2] came out at 100%. As for `COc1ccc2nccc(Oc3cc(C)c(C)nc3-c3ccccn3)c2c1` [Compound 4, 3-(6-Methoxy-quinolin-4-yloxy)-5,6-dimethyl-[2,2']bipyridine], the inhibition at 1 µM (TGFβ-1 2 ng/ml, 4 hr, Table 1A) stood at 94%. In addition, the inhibition at 3 µM under setting [3] is 100%. Consider `COc1cc2nccc(Oc3cc4ccncc4nc3C)c2cc1OC` [Compound 97, 3-(6,7-Dimethoxy-quinolin-4-yloxy)-2-methyl-[1,7]naphthyridine], for which, under setting [3], the inhibition at 3 µM is 52%. The inhibition at 10 µM under setting [4] came to 88%. Regarding `COc1cc2nccc(Oc3ccc(C)nc3-c3ccsc3)c2cc1OC` [r255], under setting [1], the inhibition at 3 µM is 93%. Under setting [2], the inhibition at 10 µM worked out at 100%. Take `COc1cc2c(Oc3ccc(C)cc3C(=O)c3ccccc3)ccnc2cc1OCCCCNCCO` [r142]: the inhibition at 3 µM under setting [5] came to 100%. Besides, the inhibition at 10 µM under setting [6] stood at 100%.

With `Fc1cc2nccc(Oc3cc4cccnc4nc3-c3ccccc3)c2cc1F` [Compound 101], the inhibition at 3 µM under setting [3] was 54%. Also, the inhibition at 10 µM under setting [4] came out at 98%.

As to `COc1cc2c(Oc3cc(C)c(C)cc3C(C)=O)ccnc2cc1OCCN1CCOCC1` [Compound r316], the inhibition at 3 µM under setting [1] worked out at 99%. Moreover, the inhibition at 10 µM under setting [2] is 100%.

With `COc1cc2c(Oc3cc4ccccc4nc3C)ccnc2cc1OCCCN1C(=O)c2ccccc2C1=O` [Compound r380], under setting [1], the inhibition at 3 µM turned out to be 50%. Also, the inhibition at 10 µM under setting [2] stood at 89%. For `COc1cc2c(Oc3cc4cnccc4nc3C)ccnc2cc1OCC(CO)CO` [r409], in that order: 41% and 88%.
